{
  "source": "patent US10105405B2",
  "about": "“Compositions and methods for enhancing brain function using acetyl-L-carnitine, huperzine A and ginkgo biloba” (priority 2006, dated 2018)",
  "origin": "cited, not measured here",
  "tested_on": "aged subjects, patients with benign senescent forgetfulness, Alzheimer's disease (AD) and vascular dementia (VD)",
  "data": [
    {"smiles": "C/C=C1\\[C@H]2C=C(C)C[C@]1(N)c1ccc(=O)[nH]c1C2", "note": "[Huperzine A]", "values": [
      {"measurement": "memory deficits", "setting": "clinical trials in China", "value": "significantly relieves memory deficits"},
      {"measurement": "peripheral cholinergic side effects", "setting": "compared with other AChEIs in use", "value": "minimal peripheral cholinergic side effects"}
    ]}
  ]
}
